Experimental data taken from US8492614B2, “Plant biochemical systems and uses thereof” (The Board of Trustees of the University of Illinois, priority 2007, dated 2013).
“Also recorded” adds a separate entry of the source. Where two headings read alike, the source gives them in different places.

How the values were obtained:
[1] = system: glabrous soybean seedlings; experiment: UV sensitivity of glabrous versus dense-hair soybean isolines; type: in vivo; conditions: few-hair (glabrous) variety, small amounts of UV
Description: Varieties that show sensitivity to UV are retained for more detailed testing of responses to UV and exogenous regulators. […] As isoline of hard soy with dense hairs was tested vs. hard soy with few (glafrous) hairs. […] Isogenic lines of Harasoy “dense” (many hairs per area) and “glabrous” (few or no hairs per area) were used to see if hairs themselves directly assisted in protection from UV-B radiation. Seedlings were grown and treated in the same manner as that shown in FIG. 18, then the integrity of the internal structures assessed by TEM as shown in FIG. 18.

soybean = experiment: Long-term growth and seed yield of UV-treated soybean supplemented with Phe; type: in vivo, soybean (Glycine max L.); conditions: Phe supplement before UV (300 nm) on day 3, grown to seed set
Description: Referring to FIG. 22, it was shown that treating soybean with Phe reverses the negative effects of UV-radiation. Seedlings were grown identically to that described for FIGS. 13 and 14, where soybean were supplemented with Phe (+Phe) or not (−Phe). Soybean were grown to seed set in greenhouse conditions where growth characteristics and evaluation of pods and seeds occurred during and after ripening.

[2] = biological target: T1, prephenate dehydratase (PD1) (Arabidopsis thaliana, UniProt Q9ZUY3); experiment: Prephenate dehydratase activity in Arabidopsis cell free extracts; type: biochemical; conditions: pre-incubation in various concentrations
T1 construct: from tissue; host or cells: aerial portions of etiolated (dark-grown) wild-type Col Arabidopsis seedlings; crude cell-free / cytosolic extract
T1 sequence (Q9ZUY3 25-424): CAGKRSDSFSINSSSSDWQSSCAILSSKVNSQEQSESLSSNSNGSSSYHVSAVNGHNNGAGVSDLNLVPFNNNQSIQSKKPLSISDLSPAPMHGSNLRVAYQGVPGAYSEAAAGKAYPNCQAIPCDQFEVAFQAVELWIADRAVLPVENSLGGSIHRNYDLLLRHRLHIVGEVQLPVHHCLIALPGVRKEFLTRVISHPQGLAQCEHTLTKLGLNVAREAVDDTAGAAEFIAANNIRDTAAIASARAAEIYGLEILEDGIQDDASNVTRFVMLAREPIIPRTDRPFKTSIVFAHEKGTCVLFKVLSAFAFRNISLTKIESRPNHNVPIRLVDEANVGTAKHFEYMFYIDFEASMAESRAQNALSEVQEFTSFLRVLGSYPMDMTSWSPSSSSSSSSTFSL
Description: 143:1590-1600). […] Absorbance and stability characteristics are tested at different pH concentrations between 6.8-8.0. Absorbance and stability characteristics are tested at different temperatures and durations of storage on the pigments and phenylalanine characteristics in solution for Arabidopsis and this is done for all crop plant types tested. The aerial portions of six-day-old dark grown Arabidopsis seedlings were harvested into potassium phosphate buffer (pH 7.5; 50 mM), DTT (1 mM), and plant protease cocktail (Sigma), and homogenized for 60 sec at a setting of #6 in a Polytron. Cell debris was removed by centrifugation. All steps were carried out at 4° C. All plants types would be harvested by this method between 6-8 days after planting in darkness. […] Production of phenylpyruvate was determined spectrophotometrically. […] See […] et al., Plant Physiol. 140:844-855.

Japanese beetles = experiment: Predation on Harosoy soybean grown outside, with or without Phe in the planting media; type: in vivo; conditions: 1 mM Phe in planting media; 300 nm or no light on day 3; 21 d outside; listed as Phe
Description: As Phe is the starting substrate of the phenylpropanoid pathway it may be that inclusion of Phe in the growth media of young seedlings allows for the synthesis of many phenylpropanoids in addition to those that can act as UV-B screening pigments, and thereby prevent the deleterious effects other abiotic and biotic stress. To test this hypothesis we planted sets of seeds of Harosoy dense and Harosoy glabrous. Planting media for one set of plants of each isoline was supplemented with 1 mM final concentration of Phe. Three d after planting, germinating sets of seedlings were irradiated with a low fluence pulse of 300 nm (i.e. an abiotic stress), or no light (Untreated), then transplanted outside to grow in natural conditions for 21 d during the normal growing season. A random planting pattern for was generated for the six One leaf from the first set of leaves and one leaf (the middle of the trifoliate) from the second set of leaves was harvested on day 21. These leaves were each weighed directly (fresh weight) and scanned to have a pictorial representation of the experienced damage as shown in FIG. 28. […] Comparison among the six variations indicates predation mainly on the glabrous (hairless) plants.

[3] = system: etiolated Arabidopsis gcr1, gpa1 or pd1 mutants; experiment: UV sensitivity of etiolated Arabidopsis mutants with phenylalanine added to the growth media; type: in vivo

effect of pre-incubation on the reaction producing phenylalanine [2]: inhibited
SMILES: N[C@@H](Cc1ccccc1)C(=O)O [phenylalanine]
correction of UV damage in the glabrous variety [1]: can correct these deficiencies
long-term growth, seed set and seed yield after UV treatment (soybean): can reverse the negative effect on yield of UV; also recorded: serves a protective role to the plant in permitting the plant to achieve adult stage and seed set
long-term growth, seed set and seed yield after UV treatment (soybean; listed as Phe): indistinguishable from untreated seedlings; also recorded: reversal of the negative effects of UV-radiation
predation on leaves (Japanese beetles): experienced less predation; also recorded: can be reduced
rescue of UV sensitivity of mutants [3]: can rescue gcr1, gpa1 or pd1 mutants
rescue of UV sensitivity of mutants ([3]; listed as Phe): restores waxes, fatty acids, UV-absorbing materials and restores resistance to UV damage in pd1 mutants; also recorded: able to respond to UV like wild type
